As usually defined, the IC50 is the midpoint of a concentration-inhibition curve. Broadly, the solubility is the dissolved amount per volume that the medium holds. Read a high solubility as a readily soluble substance. In general, melting point refers to the temperature of the solid-liquid transition.

Values after ≈ are worked out from the molar mass of the structure shown. Where two headings read alike, the source gives them in different places. Some results are limits rather than exact numbers.

The subject of data set [1] is HeLa (human cervical carcinoma) cells. Nature of the data set: Cell growth assay (XTT), HeLa. Type of data set: cell-based. Conditions: 72 h drug exposure, read-out: Antiproliferative activity IC50 HeLa. The method in brief:
(§1)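 Cells (1.5 × 10^4 cells/mL for MCF7, HeLa, HEK293; 3 × 10^4 cells/mL for HT-29) attached 24 h, then treated 72 h at 37 °C, 5% CO2. Screened at 1 µM; IC50 versus untreated controls from 10^−5 to 10^−10 M by nonlinear fit. XTT/PMS absorbance at 450 nm after 4 h (MCF7, HeLa) or 6 h (HT-29, HEK293); HT-29 with 10 µM verapamil.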

Data set [2] is described as follows: Aqueous solubility (saturation shake-flask, UV). In kind it is physicochemical. The settings on record: aqueous buffer, thermodynamic from solid, pH 7.0 phosphate buffer, room temperature. The protocol:
The aqueous solubility was determined in a Helios-α UV-320 Spectrophotometer Thermo-Spectronic, Thermo Fischer Scientific, Waltham, MA, USA) using an approach based on the saturation shake-flask method. 1–2 mg of each selected compound was suspended in 300 µL pH 7.0 buffer and stirred for 48 h at room temperature. The resulting mixture was filtered through a […] filter to discard the insoluble residues. A scan between 270 and 400 nm for the tested compound was performed and three wavelengths of maximum absorbance were selected. Calibration curves were performed at these wavelengths and the concentration in the supernatant was measured by UV absorbance. The final value was given as the average of the three measurements.

For data set [3], the system named is HT-29 (human colon carcinoma) cells. Nature of the data set: Cell growth assay (XTT), HT-29, alone or with verapamil. Type of data set: cell-based.
In data set [4] the test system is HEK293 (human embryonic kidney) cells. Nature of the data set: Cell growth assay (XTT), non-tumorigenic HEK293. Conditions: for IC50: Homo sapiens, HEK293, non-tumorigenic cell line, 72 h, XTT, read-out: Antiproliferative activity IC50 HEK293. In kind it is cell-based. The protocol:
The presence of mycoplasma was routinely checked with MycoAlert kit (Lonza-Cambrex) and only mycoplasma-free cells were used in the experiments. Tumour cell lines were kindly provided by Dr Faustino Mollinedo from Centro de Investigaciones Biológicas Margarita Salas, Madrid, Spain. To determine cell growth, cells in exponential growth phase were seeded (100 µL/well in 96-well plates) with appropriate cell concentration (1.5 × 10^4 cells/mL for MCF7, HeLa and HEK-293 and 3 × 10^4 cells/mL for HT-29) in complete DMEM or RPMI 1640 medium (see above) at 37 °C and 5% CO2 atmosphere. After 24 h incubation, to allow cells to attach to the plates, all compounds were added at 1 µM concentration (10 µL/well in 96-well plates) and the effect on the proliferation was evaluated 72 h post-treatment. Compounds showing antiproliferative effects at tested concentration were selected for IC50 calculation (50% inhibitory concentration compared to the untreated controls) from 10^−5 to 10^−10 M concentration. Nonlinear curves fitting the experimental data were carried out for each compound. […] A freshly prepared mixture solution of XTT labelling reagent with 0.02% (v/v) PMS (N-methyl-dibenzopyrazine methyl sulfate) electron coupling reagent was added to cells (50 µL/well in 96-well plates, the total volume of 160 µL/well) and were incubated during the corresponding time according to each cell line (4 h for MCF7 and HeLa and 6 h for HT-29 and HEK-293) in a humidified atmosphere (37 °C, 5% CO2). The absorbance of the formazan product generated was measured at a test wavelength of 450 nm using a multi-well plate reader (Ultra Evolution, Tecan, Männedorf, Suiza). Compounds were dissolved in DMSO and the final solvent concentrations never exceeded 0.5% (v/v). The control wells included treated cells with 0.5% (v/v) DMSO and the positive control. 10 µM verapamil was included as a control for the HT-29 cell line. Measurements were performed in triplicate, and each experiment was repeated three times.
Background: Tetrazolium assays rely on reduction of a dye to a coloured formazan, in cell work by metabolically active cells.

Data set [5] has as its system MCF7 (human breast carcinoma) cells. Put plainly: Cell growth assay (XTT), MCF7. Conditions: Homo sapiens, MCF7; 72 h drug exposure, XTT; read-out: Antiproliferative activity IC50 MCF7. In kind it is cell-based. An outline of the steps: as §1
Data set [6] deals with T1, microtubular protein isolated from calf brain (Bos taurus, UniProt P81947+Q6B856).
T1 construct: isolated from calf brain according to the modified Shelanski method; from tissue; host or cells: calf brain
T1 sequence (Q6B856 whole entry): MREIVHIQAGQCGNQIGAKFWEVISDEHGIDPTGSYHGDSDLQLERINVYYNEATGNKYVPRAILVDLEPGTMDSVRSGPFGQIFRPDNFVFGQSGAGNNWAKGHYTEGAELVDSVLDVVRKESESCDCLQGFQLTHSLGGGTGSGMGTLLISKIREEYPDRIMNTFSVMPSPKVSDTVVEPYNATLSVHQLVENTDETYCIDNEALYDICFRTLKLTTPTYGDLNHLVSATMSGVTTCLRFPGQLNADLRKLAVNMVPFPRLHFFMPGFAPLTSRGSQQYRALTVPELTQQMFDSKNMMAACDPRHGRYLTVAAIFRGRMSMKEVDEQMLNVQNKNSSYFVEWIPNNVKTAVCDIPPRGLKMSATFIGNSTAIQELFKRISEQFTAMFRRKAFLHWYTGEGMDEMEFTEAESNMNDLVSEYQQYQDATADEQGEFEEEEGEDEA
T1 sequence (P81947 whole entry): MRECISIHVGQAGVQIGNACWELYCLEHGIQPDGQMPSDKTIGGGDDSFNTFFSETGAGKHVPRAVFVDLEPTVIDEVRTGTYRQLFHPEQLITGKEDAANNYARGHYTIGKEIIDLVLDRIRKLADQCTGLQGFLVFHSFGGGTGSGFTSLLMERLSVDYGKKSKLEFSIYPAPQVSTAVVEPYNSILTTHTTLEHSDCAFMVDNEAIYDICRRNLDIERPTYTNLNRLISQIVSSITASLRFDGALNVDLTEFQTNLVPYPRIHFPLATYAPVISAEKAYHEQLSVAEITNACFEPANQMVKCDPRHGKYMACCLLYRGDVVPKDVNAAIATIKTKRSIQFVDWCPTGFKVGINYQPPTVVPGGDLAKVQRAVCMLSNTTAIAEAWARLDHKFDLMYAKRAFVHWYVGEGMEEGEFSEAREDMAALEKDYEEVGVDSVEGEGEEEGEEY
Put plainly: Inhibition of tubulin polymerisation (turbidity). The settings on record: for TPI % 10 µM: 10 µM compound, 1.5 mg/mL microtubular protein; for IC50: in vitro tubulin polymerisation inhibition, read-out: TPI IC50. Type of data set: biochemical.

Setting [7] is: 72 h, in the presence of Pgp/MDR1 inhibitor verapamil (10 µM), read-out: Antiproliferative activity IC50 HT-29 Verap.
Setting [8] is: Homo sapiens, HT-29, 72 h drug exposure, XTT, read-out: Antiproliferative activity IC50 HT-29.

For `COc1ccc(S(=O)(=O)N(C)c2cc(OC)ccc2OC)cc1` [Compound 22, N-(2,5-dimethoxyphenyl)-4-methoxy-N-methylbenzenesulphonamide], the melting point is 105 to 110 °C. The half-inhibitory concentration (IC50) in data set [1] came to 0.177 µM. Further, the solubility at 48 h in data set [2] worked out at 25 µg/mL (≈ 74.1 µM). For the same compound, the concentration for half-maximal inhibition (IC50) in data set [3] (setting [7]) is 0.305 µM. In data set [3] (setting [8]), the half-maximal inhibitory concentration (IC50) was found to be 0.25 µM. Also, in data set [4], the “Selectivity index HEK293 vs HeLa and MCF7 tumour cells” value (from here on “Selectivity index HEK293”) is 3- to 5 fold; the IC50 came to 0.517 µM. The half-inhibitory concentration (IC50) in data set [5] was 0.153 µM. Also, in data set [6], the “TPI % 10 µM” value is 4% and the concentration for half-maximal inhibition (IC50) was greater than 10 µM.
`COc1ccc(S(=O)(=O)Nc2cc(OC)c(Br)cc2OC)cc1` [Compound 23, N-(4-bromo-2,5-dimethoxyphenyl)-4-methoxybenzenesulphonamide] displayed a melting point of 118 to 119 °C. The 50% inhibitory concentration (IC50) in data set [1] is 0.045 µM. The same compound yielded a solubility at 48 h in data set [2] of 9 µg/mL (≈ 22.4 µM). For the same compound, the half-maximal inhibitory concentration (IC50) in data set [3] (setting [7]) is 0.03 µM. The IC50 in data set [3] (setting [8]) was 0.072 µM. Further, in data set [4], the “Selectivity index HEK293” value lay within 0.5 to 2 fold; the concentration for half-maximal inhibition (IC50) stood at 0.043 µM. The IC50 in data set [5] worked out at 0.025 µM. In data set [6], the “TPI % 10 µM” value is 65% and the IC50 turned out to be 6.9 µM.
Compound `COc1ccc(S(=O)(=O)N(C)c2cc(OC)c(Br)cc2OC)cc1` [Compound 24, N-(4-bromo-2,5-dimethoxyphenyl)-4-methoxy-N-methylbenzenesulphonamide] had a melting point of 132 to 133 °C. In addition, the 50% inhibitory concentration (IC50) in data set [1] stood at 0.033 µM. In addition, the solubility at 48 h in data set [2] came to 1 µg/mL (≈ 2.4 µM). In addition, the IC50 in data set [3] (setting [7]) amounted to 0.16 µM. Also, the half-inhibitory concentration (IC50) in data set [3] (setting [8]) was 0.123 µM. Moreover, in data set [4], the “Selectivity index HEK293” value is recorded as 3- to 5 fold; the half-maximal inhibitory concentration (IC50) amounted to 0.091 µM. For the same compound, in data set [5], the concentration for half-maximal inhibition (IC50) is 0.019 µM. Further, in data set [6], the “TPI % 10 µM” value is 59% and the IC50 came to 7.6 µM.
